Measured values reported in patent US5661146A, “Substituted dibenzoxazepine urea compounds, pharmaceutical compositions and methods of use” (G.D. Searle & Co., priority 1995, dated 1997).

How the values were obtained:
[1] = molecular target: T1, prostaglandin E2 -induced contractions of segments of guinea pig ileum (Cavia porcellus, UniProt A0A286XHJ6); test: Prostaglandin (PGE) Antagonism Assay (prostaglandin E2-induced contractions of guinea pig ileum segments); conditions: initial test compound concentration 3 micromolar
T1 construct: Segments of ileum about 2 cm long were then cut and mounted in a 10 mL tissue bath; from tissue; host or cells: ileum segments of male albino guinea pigs
T1 sequence (A0A286XHJ6 1-405): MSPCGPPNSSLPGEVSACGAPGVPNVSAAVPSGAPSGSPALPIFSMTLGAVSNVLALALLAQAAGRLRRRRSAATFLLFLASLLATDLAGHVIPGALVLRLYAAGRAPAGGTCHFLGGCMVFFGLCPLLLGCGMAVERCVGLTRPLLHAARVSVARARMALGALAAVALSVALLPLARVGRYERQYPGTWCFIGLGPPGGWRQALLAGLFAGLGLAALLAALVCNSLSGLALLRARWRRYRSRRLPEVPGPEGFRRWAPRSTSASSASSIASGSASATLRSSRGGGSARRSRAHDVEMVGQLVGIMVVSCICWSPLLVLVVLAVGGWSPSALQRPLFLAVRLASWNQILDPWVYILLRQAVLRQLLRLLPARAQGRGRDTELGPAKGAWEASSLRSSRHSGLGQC
From the text: The ilea were then quickly removed from the guinea pigs and placed in a modified Tyrode solution, a solution which is known to those skilled in the art, containing one-half of the usual amount of magnesium ions. […] Data for a control prostaglandin E2 dose response curve plotting concentration of prostaglandin E2 versus the intensity of contractions, detected isotonically, was then obtained by experimentally adjusting the dose of the prostaglandin E2 being injected into the tissue bath, in a manner known by those of skill in the art. Solutions or suspensions containing an initial concentration (3 micromolar) of a test compound in modified Tyrode solution ("test solutions/suspensions") were then separately substituted for the control bath solution. Each test solution/suspension was then kept in constant contact with the ileum tissue, except for brief periods to drain the bath in preparation for rinsing with fresh test solution/suspension. A second prostaglandin E2 dose response curve was then generated for prostaglandin E2 in the presence of a test compound.

mice = test: Writhing Assay (PBQ-induced writhing, analgesic activity in mice); type: in vivo, mouse (Charles River male albino mice); conditions: among compounds of the invention tested
From the text: The Writhing Assay is one of the most widely-used experimental procedures for measuring the analgesic activity of different narcotic and nonnarcotic analgesic agents, and involves the continuous, chemically-induced pain of visceral origin to an animal, such as a mouse or rat. [Gyires et al., Arch. int. […] Drugs which reduce the number of writhes of the animal appear to restore the normal nociceptive threshold of the animal. […] Charles River male albino mice, weighing 20 to 30 grams, were used in this assay. […] Ten mice which were given saline in place of a test compound of the invention were used as a control group. Five minutes later, each mouse was individually placed into a glass beaker for observation, and the number of writhes occurring during the following ten-minute period was counted. […] The standard initial screening dose of a test compound employed in this assay was 30 mpk […].

Row | PGE IN GUINEA PIG ILEUM, dose ratio given as activity word [1] | Structure (SMILES) | potency ranking in the Writhing Assay (in words) (mice)
1 | Active | CCN(CC)CCCCCOC(=O)N1Cc2ccccc2Oc2ccc(Cl)cc21 [Example 29, 5-(diethylamino)pentyl 8-chlorodibenz[b,f]-[1,4]oxazepine-10(11H)-carboxylate] | 
2 |  | COC(=O)[C@H](C)NC(=O)N1Cc2ccccc2Oc2ccc(Cl)cc21 [Example 32, methyl (L)-2R-[[(8-chlorodibenz[b,f][1,4]oxazepine-10-(11H)-yl)carbonyl]amino]propanoate] | most potent compound of the invention tested in this assay
